Experimental data: PubChem BioAssay (NCI)
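Dose response: 5 concentrations. Exposure: 48 h. Format: 96-well plates. Endpoint: linear interpolation; highest concentration if not reached. Definition used: TGI = concentration required for complete inhibition of growth.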

System: ACHN renal
Test: NCI tumour cell line growth inhibition, 48 h

First: CCOC(=O)c1csc(NC(=O)CN2CCN(c3ccccc3)CC2)n1
Second: COc1cc2c(cc1OCCCCCN1C(=O)c3cccc4cccc(c34)C1=O)N=C[C@@H]1CCCN1C2=O
The TGI of the first is higher: over 100 µM for the first, 0.827 µM for the second.

[N-]=[N+]=CC(=O)OC1CCOCC1 and CS(=O)(=O)OCOS(C)(=O)=O cannot be ordered by TGI: over 100 µM for the first, over 100 µM for the second.

System: RXF 393 renal
Test: NCI tumour cell line growth inhibition, 48 h

CCCCN(CC)C(=O)C1=C(C)NC(C)=C(C(=O)N(CC)CCCC)C1 and CCOC(=O)c1csc(NC(=O)CN2CCN(c3ccccc3)CC2)n1 cannot be ordered by TGI: over 100 µM for the first, over 100 µM for the second.

Going from COc1cc2c(cc1OCCCCCN1C(=O)c3cccc4cccc(c34)C1=O)N=C[C@@H]1CCCN1C2=O to [N-]=[N+]=CC(=O)OC1CCOCC1, the TGI rises from 0.0493 µM to over 100 µM.

System: U251 CNS
Test: NCI tumour cell line growth inhibition, 48 h

CCCCN(CC)C(=O)C1=C(C)NC(C)=C(C(=O)N(CC)CCCC)C1 and CCOC(=O)c1csc(NC(=O)CN2CCN(c3ccccc3)CC2)n1 cannot be ordered by TGI: over 100 µM for the first, over 100 µM for the second.

COc1cc2c(cc1OCCCCCN1C(=O)c3cccc4cccc(c34)C1=O)N=C[C@@H]1CCCN1C2=O and [N-]=[N+]=CC(=O)OC1CCOCC1 cannot be ordered by TGI: over 100 µM for the first, over 100 µM for the second.

For CS(=O)(=O)OCOS(C)(=O)=O, the TGI was over 100 µM.

System: SK-MEL-2 melanoma
Test: NCI tumour cell line growth inhibition, 48 h

CCCCN(CC)C(=O)C1=C(C)NC(C)=C(C(=O)N(CC)CCCC)C1 and CCOC(=O)c1csc(NC(=O)CN2CCN(c3ccccc3)CC2)n1 cannot be ordered by TGI: over 100 µM for the first, over 100 µM for the second.

Compared with COc1cc2c(cc1OCCCCCN1C(=O)c3cccc4cccc(c34)C1=O)N=C[C@@H]1CCCN1C2=O, [N-]=[N+]=CC(=O)OC1CCOCC1 is higher in TGI: 0.548 µM for the first, over 100 µM for the second.

For CS(=O)(=O)OCOS(C)(=O)=O, the TGI was over 100 µM.

System: A549 NSCLC
Test: NCI tumour cell line growth inhibition, 48 h

CCCCN(CC)C(=O)C1=C(C)NC(C)=C(C(=O)N(CC)CCCC)C1 and CCOC(=O)c1csc(NC(=O)CN2CCN(c3ccccc3)CC2)n1 cannot be ordered by TGI: over 100 µM for the first, over 100 µM for the second.

Going from COc1cc2c(cc1OCCCCCN1C(=O)c3cccc4cccc(c34)C1=O)N=C[C@@H]1CCCN1C2=O to CS(=O)(=O)OCOS(C)(=O)=O, the TGI rises from 3.3 µM to over 100 µM.

System: MCF7 breast
Test: NCI tumour cell line growth inhibition, 48 h

CCCCN(CC)C(=O)C1=C(C)NC(C)=C(C(=O)N(CC)CCCC)C1 and CCOC(=O)c1csc(NC(=O)CN2CCN(c3ccccc3)CC2)n1 cannot be ordered by TGI: over 100 µM for the first, over 100 µM for the second.

[N-]=[N+]=CC(=O)OC1CCOCC1 and CS(=O)(=O)OCOS(C)(=O)=O cannot be ordered by TGI: over 100 µM for the first, over 100 µM for the second.

System: UACC-62 melanoma
Test: NCI tumour cell line growth inhibition, 48 h

CCCCN(CC)C(=O)C1=C(C)NC(C)=C(C(=O)N(CC)CCCC)C1 and CCOC(=O)c1csc(NC(=O)CN2CCN(c3ccccc3)CC2)n1 cannot be ordered by TGI: over 100 µM for the first, over 100 µM for the second.

Compared with COc1cc2c(cc1OCCCCCN1C(=O)c3cccc4cccc(c34)C1=O)N=C[C@@H]1CCCN1C2=O, [N-]=[N+]=CC(=O)OC1CCOCC1 is higher in TGI: 0.297 µM for the first, over 100 µM for the second.

Work on CS(=O)(=O)OCOS(C)(=O)=O yielded a TGI of over 100 µM.

System: A498 renal
Test: NCI tumour cell line growth inhibition, 48 h

CCCCN(CC)C(=O)C1=C(C)NC(C)=C(C(=O)N(CC)CCCC)C1 and CCOC(=O)c1csc(NC(=O)CN2CCN(c3ccccc3)CC2)n1 cannot be ordered by TGI: over 100 µM for the first, over 100 µM for the second.

Compared with COc1cc2c(cc1OCCCCCN1C(=O)c3cccc4cccc(c34)C1=O)N=C[C@@H]1CCCN1C2=O, [N-]=[N+]=CC(=O)OC1CCOCC1 is higher in TGI: 1.3 µM for the first, over 100 µM for the second.

In the case of CS(=O)(=O)OCOS(C)(=O)=O, the TGI is reported as over 100 µM.

System: SR leukemia
Test: NCI tumour cell line growth inhibition, 48 h

CCOC(=O)c1csc(NC(=O)CN2CCN(c3ccccc3)CC2)n1 and [N-]=[N+]=CC(=O)OC1CCOCC1 cannot be ordered by TGI: over 100 µM for the first, over 100 µM for the second.

Compound CS(=O)(=O)OCOS(C)(=O)=O has a TGI of 47.9 µM.

System: OVCAR-5 ovarian
Test: NCI tumour cell line growth inhibition, 48 h

CCCCN(CC)C(=O)C1=C(C)NC(C)=C(C(=O)N(CC)CCCC)C1 and CCOC(=O)c1csc(NC(=O)CN2CCN(c3ccccc3)CC2)n1 cannot be ordered by TGI: over 100 µM for the first, over 100 µM for the second.

First: COc1cc2c(cc1OCCCCCN1C(=O)c3cccc4cccc(c34)C1=O)N=C[C@@H]1CCCN1C2=O
Second: [N-]=[N+]=CC(=O)OC1CCOCC1
The TGI of the first is lower: 15.5 µM for the first, over 100 µM for the second.

For CS(=O)(=O)OCOS(C)(=O)=O, the TGI was over 100 µM.

System: KM12 colon
Test: NCI tumour cell line growth inhibition, 48 h

CCCCN(CC)C(=O)C1=C(C)NC(C)=C(C(=O)N(CC)CCCC)C1 and CCOC(=O)c1csc(NC(=O)CN2CCN(c3ccccc3)CC2)n1 cannot be ordered by TGI: over 100 µM for the first, over 100 µM for the second.

Compared with COc1cc2c(cc1OCCCCCN1C(=O)c3cccc4cccc(c34)C1=O)N=C[C@@H]1CCCN1C2=O, [N-]=[N+]=CC(=O)OC1CCOCC1 is higher in TGI: 0.391 µM for the first, over 100 µM for the second.

Compound CS(=O)(=O)OCOS(C)(=O)=O has a TGI of over 100 µM.

System: NCI-H522 lung
Test: NCI tumour cell line growth inhibition, 48 h

Going from COc1cc2c(cc1OCCCCCN1C(=O)c3cccc4cccc(c34)C1=O)N=C[C@@H]1CCCN1C2=O to [N-]=[N+]=CC(=O)OC1CCOCC1, the TGI rises from 0.167 µM to over 100 µM.

System: HOP-92 NSCLC
Test: NCI tumour cell line growth inhibition, 48 h

CCCCN(CC)C(=O)C1=C(C)NC(C)=C(C(=O)N(CC)CCCC)C1 and CCOC(=O)c1csc(NC(=O)CN2CCN(c3ccccc3)CC2)n1 cannot be ordered by TGI: over 100 µM for the first, over 100 µM for the second.

Compared with COc1cc2c(cc1OCCCCCN1C(=O)c3cccc4cccc(c34)C1=O)N=C[C@@H]1CCCN1C2=O, [N-]=[N+]=CC(=O)OC1CCOCC1 is higher in TGI: 0.747 µM for the first, over 100 µM for the second.

For CS(=O)(=O)OCOS(C)(=O)=O, the TGI was over 100 µM.

System: SW-620 colon
Test: NCI tumour cell line growth inhibition, 48 h

CCCCN(CC)C(=O)C1=C(C)NC(C)=C(C(=O)N(CC)CCCC)C1 and CCOC(=O)c1csc(NC(=O)CN2CCN(c3ccccc3)CC2)n1 cannot be ordered by TGI: over 100 µM for the first, over 100 µM for the second.

[N-]=[N+]=CC(=O)OC1CCOCC1 and CS(=O)(=O)OCOS(C)(=O)=O cannot be ordered by TGI: over 100 µM for the first, over 100 µM for the second.

System: MDA-N
Test: NCI tumour cell line growth inhibition, 48 h

CCCCN(CC)C(=O)C1=C(C)NC(C)=C(C(=O)N(CC)CCCC)C1 and CCOC(=O)c1csc(NC(=O)CN2CCN(c3ccccc3)CC2)n1 cannot be ordered by TGI: over 100 µM for the first, over 100 µM for the second.

COc1cc2c(cc1OCCCCCN1C(=O)c3cccc4cccc(c34)C1=O)N=C[C@@H]1CCCN1C2=O was tested, and the TGI was 0.331 µM.
